# Measurements reported in patent US12454531B2, “Substituted piperazine derivatives useful as T cell activators” (BRISTOL-MYERS SQUIBB COMPANY, priority 2019, dated 2025).
# Read-outs that look alike come from different tables or passages of the source.
# Legend:
# DGKζ = DGKζ (Homo sapiens (Human), UniProt Q13574); assay: Assay 1 or 2: In Vitro DGK Inhibition Assays (DGKζ LIPGLO, extruded liposome); type: biochemical; details: extruded liposome substrate, 150 μM ATP
# Method: (§1) Assay 1: In Vitro DGK Inhibition Assays—Method A
# (§2) The DGKα and DGKζ reactions were performed using either extruded liposome (DGKα and DGKζ LIPGLO assays) or detergent/lipid micelle substrate (DGKα and DGKζ assays). The reactions were carried out in 50 mM MOPS pH 7.5, 100 mM NaCl, 10 mM MgCl2, 1 μM CaCl2), and 1 mM DTT (assay buffer). The reactions using a detergent/lipid micelle substrate also contained 50 mM octyl B-D-glucopyranoside. The lipid substrate concentrations were 11 mM PS and 1 mM DAG for the detergent/lipid micelle reactions. The lipid substrate concentrations were 2 mM PS, 0.25 mM DAG, and 2.75 mM PC for the extruded liposome reactions. The reactions were carried out in 150 μM ATP. The enzyme concentrations for the DGKα and DGKζ were 5 nM
# (§3) The compound inhibition studies were carried out as follows: 50 nL droplets of each test compound (top concentration 10 mM with 11 point, 3-fold dilution series for each compound) solubilized in DMSO were transferred to wells of a white 1536 well plate (Corning 3725). A 5 mL enzyme/substrate solution at 2× final reaction concentration was prepared by combining 2.5 mL 4× enzyme solution (20 nM DGKα or DGKζ (prepared as described below) in assay buffer) and 2.5 mL of either 4× liposome or 4× detergent/lipid micelle solution (compositions described below) and incubated at room temperature for 10 minutes. Next, 1 μL 2× enzyme/substrate solution was added to wells containing the test compound and reactions were initiated with the addition of 1 μL 300 uM ATP. The reactions were allowed to proceed for 1 hr, after which 2 μL Glo Reagent (Promega V9101) was added and incubated for 40 minutes. Next, 4 μL Kinase Detection Reagent was added and incubated for 30 minutes. Luminescence was recorded using an EnVision microplate reader. […] The compounds were evaluated at 11 concentrations to determine IC50.
# (§4) The lipid composition was 5 mol % DAG (Avanti 8008110), 40 mol % PS (Avanti 840035P), and 55 mol % PC (Avanti 850457) at a total lipid concentration of 15.2 mg/mL for the 4× liposome solution. The PC, DAG, and PS were dissolved in chloroform, combined, and dried in vacuo to a thin film. The lipids were hydrated to 20 mM in 50 mM MOPS pH 7.5, 100 mM NaCl, 5 mM MgCl2, and were freeze-thawed five times. The lipid suspension was extruded through a 100 nm polycarbonate filter eleven times. […] The liposome preparation was stored at 4° C. for as long as four weeks.
# (§5) Baculovirus amplification was achieved using infected Sf9 cells at 1:1500 virus/cell ratios, and grown for 65 hours at 27° C. post-transfection.
# (§6) The cells were lysed using nitrogen cavitation method with a nitrogen bomb (Parr Instruments), and the lysates were clarified by centrifugation. […] The three steps column chromatography included nickel affinity resin capture (i.e. HisTrap FF crude, GE Healthcare), followed by size exclusion chromatography (i.e. HiLoad 26/600 Superdex 200 prep grade, GE Healthcare for DGK-alpha, and HiPrep 26/600 Sephacryl S 300_HR, GE Healthcare for DGK-zeta). The third step was ion exchange chromatography, and differed for the two isoforms. DGKα was polished using Q-Sepharose anion exchange chromatography (GE Healthcare). DGKζ was polished using SP Sepharose cation exchange chromatography (GE Healthcare). The proteins were delivered at concentrations of ≥2 mg/mL. The formulation buffers were identical for both proteins: 50 mM Hepes, pH 7.2, 500 mM NaCl, 10% v/v glycerol, 1 mM TCEP, and 0.5 mM EDTA.
# Assay 2: In Vitro DGK Inhibition Assays—Method B
# The DGKα and DGKζ reactions were performed using either extruded liposome (DGKα and DGKζ LIPGLO assays) or detergent/lipid micelle substrate (DGKα and DGKζ assays).
# DGKα = DGKα (Homo sapiens (Human), UniProt P23743); assay: Assay 1: In Vitro DGK Inhibition Assays, Method A (DGKα LIPGLO, extruded liposome); type: biochemical; details: extruded liposome substrate, 150 μM ATP
# Chain of DGKα (P23743 whole entry): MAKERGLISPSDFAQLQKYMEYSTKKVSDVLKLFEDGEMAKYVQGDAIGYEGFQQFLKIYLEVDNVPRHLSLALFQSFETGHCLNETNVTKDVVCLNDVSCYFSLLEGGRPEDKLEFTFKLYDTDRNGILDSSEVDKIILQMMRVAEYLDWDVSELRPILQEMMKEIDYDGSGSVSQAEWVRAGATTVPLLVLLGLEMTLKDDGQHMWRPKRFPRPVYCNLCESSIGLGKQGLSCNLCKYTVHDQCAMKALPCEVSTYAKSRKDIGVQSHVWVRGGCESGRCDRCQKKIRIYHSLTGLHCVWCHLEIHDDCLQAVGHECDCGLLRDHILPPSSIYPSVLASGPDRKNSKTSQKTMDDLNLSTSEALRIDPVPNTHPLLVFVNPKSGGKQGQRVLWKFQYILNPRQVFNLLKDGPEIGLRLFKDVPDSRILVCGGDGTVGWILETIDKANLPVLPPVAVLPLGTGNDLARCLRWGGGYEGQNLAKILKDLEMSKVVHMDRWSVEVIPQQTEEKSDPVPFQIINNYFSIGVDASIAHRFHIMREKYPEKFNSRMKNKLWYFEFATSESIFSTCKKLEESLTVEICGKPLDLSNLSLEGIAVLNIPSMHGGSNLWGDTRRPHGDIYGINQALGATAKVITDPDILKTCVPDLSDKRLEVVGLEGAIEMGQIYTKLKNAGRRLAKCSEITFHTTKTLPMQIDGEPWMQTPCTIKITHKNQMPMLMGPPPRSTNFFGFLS
# Method: as §1, §2, §3, §4, §5, §6
# Human whole blood IFN-γ = assay: Assay 10: Human Whole Blood IFN-γ Assay; type: cell-based; details: anti-CD3 and anti-CD28 stimulation, 100% = 3 μM reference compound, read-out: INFg Whole Blood Normalized Agonist EC50
# Method: Assay 10: Human Whole Blood IFN-γ Assay
# Human venous whole blood (22.5 μL per well), obtained from healthy donors, was pre-treated with compounds for one hour at 37° C. in a humidified 95% air/5% CO2 incubator. The blood was stimulated with 2.5 μL anti-human CD3 and anti-CD28 mAb at a final concentration of 1 μg/mL each for 24 hours at 37° C. IFN-7 in the supernatants was measured using AlphLISA kit (Cat #AL217).
# Chain of DGKζ (Q13574 other isoform, or with tags, fused parts or gaps): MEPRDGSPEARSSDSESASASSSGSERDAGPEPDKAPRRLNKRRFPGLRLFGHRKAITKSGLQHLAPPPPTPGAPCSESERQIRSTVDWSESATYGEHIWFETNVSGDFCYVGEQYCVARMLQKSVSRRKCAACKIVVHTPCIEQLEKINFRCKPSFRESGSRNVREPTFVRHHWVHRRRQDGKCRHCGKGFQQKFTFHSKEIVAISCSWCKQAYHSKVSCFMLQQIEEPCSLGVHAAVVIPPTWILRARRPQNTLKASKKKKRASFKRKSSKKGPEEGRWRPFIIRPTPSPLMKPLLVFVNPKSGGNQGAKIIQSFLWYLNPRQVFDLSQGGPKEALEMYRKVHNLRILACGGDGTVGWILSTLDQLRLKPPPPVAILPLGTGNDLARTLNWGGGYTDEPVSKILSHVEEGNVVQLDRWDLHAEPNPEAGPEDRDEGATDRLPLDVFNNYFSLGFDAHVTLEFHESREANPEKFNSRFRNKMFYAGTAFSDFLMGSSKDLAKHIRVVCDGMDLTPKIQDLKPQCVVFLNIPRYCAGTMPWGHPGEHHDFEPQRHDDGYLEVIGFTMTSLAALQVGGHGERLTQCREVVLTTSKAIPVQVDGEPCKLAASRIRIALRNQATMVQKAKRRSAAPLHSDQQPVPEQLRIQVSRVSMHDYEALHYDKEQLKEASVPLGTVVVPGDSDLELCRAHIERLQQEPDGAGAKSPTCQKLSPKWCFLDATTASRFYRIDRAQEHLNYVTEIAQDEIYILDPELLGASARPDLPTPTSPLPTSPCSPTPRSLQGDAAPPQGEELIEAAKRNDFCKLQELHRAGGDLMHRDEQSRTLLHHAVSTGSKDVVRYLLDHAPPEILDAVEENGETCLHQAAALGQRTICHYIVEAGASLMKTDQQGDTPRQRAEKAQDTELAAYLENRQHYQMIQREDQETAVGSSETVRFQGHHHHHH
SMILES,IC50 (DGKζ) [µM],IC50 (DGKα) [µM],EC50 (Human whole blood IFN-γ; 24 hours) [µM],"EC50 (Human whole blood IFN-γ; Homo sapiens, 24 h) [µM]"
"C[C@@H]1CN(c2cc(=O)n(C)c3ccc(C#N)nc23)[C@@H](C)CN1C(C(=O)NCC(F)F)c1ccc(F)cc1 (stereo partly drawn) [Example 5, 2-((2R,5S)-4-(6-cyano-1-methyl-2-oxo-1,2-dihydro-1,5-naphthyridin-4-yl)-2,5-dimethylpiperazin-1-yl)-N-(2,2-difluoroethyl)-2-(4-fluorophenyl)acetamide]",3.27,2.04,,
C[C@@H]1CN(c2cc(=O)n(C)c3ccc(C#N)nc23)[C@@H](C)CN1C(C(=O)N1CCCCC1)c1ccc(F)cc1 (stereo partly drawn) [Example 12],6.68,5.12,,
"C[C@@H]1CN(c2cc(=O)n(C)c3ccc(C#N)nc23)[C@@H](C)CN1C(C(=O)N1CCOCC1)c1ccc(F)cc1 (stereo partly drawn) [Example 17, 8-((2S,5R)-4-(1-(4-fluorophenyl)-2-morpholino-2-oxoethyl)-2,5-dimethylpiperazin-1-yl)-5-methyl-6-oxo-5,6-dihydro-1,5-naphthyridine-2-carbonitrile]",7.75,2.56,1.49,
"C[C@@H]1CN(c2cc(=O)n(C)c3ccc(C#N)nc23)[C@@H](C)CN1C(C(=O)N1CCOCC1)c1ccc(F)cc1 (stereo partly drawn) [Example 18, 8-((2S,5R)-4-(1-(4-fluorophenyl)-2-morpholino-2-oxoethyl)-2,5-dimethylpiperazin-1-yl)-5-methyl-6-oxo-5,6-dihydro-1,5-naphthyridine-2-carbonitrile]",42.9,24.8,20,
"C[C@@H]1CN(c2cc(=O)n(C)c3ccc(C#N)nc23)[C@@H](C)CN1C(C(=O)N1CCN(C)CC1)c1ccc(F)cc1 (stereo partly drawn) [Example 19, 8-((2S,5R)-4-(1-(4-fluorophenyl)-2-(4-methylpiperazin-1-yl)-2-oxoethyl)-2,5-dimethylpiperazin-1-yl)-5-methyl-6-oxo-5,6-dihydro-1,5-naphthyridine-2-carbonitrile]",172,37.1,,3.44
"C[C@@H]1CN(c2cc(=O)n(C)c3ccc(C#N)nc23)[C@@H](C)CN1C(C(=O)N1CCN(C)CC1)c1ccc(F)cc1 (stereo partly drawn) [Example 20, 8-((2S,5R)-4-(1-(4-fluorophenyl)-2-(4-methylpiperazin-1-yl)-2-oxoethyl)-2,5-dimethylpiperazin-1-yl)-5-methyl-6-oxo-5,6-dihydro-1,5-naphthyridine-2-carbonitrile]",83.3,253,,
"C[C@@H]1CN(c2cc(=O)n(C)c3ccc(C#N)nc23)[C@@H](C)CN1C(C(=O)Nc1ccon1)c1ccc(F)cc1 (stereo partly drawn) [Example 29, 2-((2R,5S)-4-(6-cyano-1-methyl-2-oxo-1,2-dihydro-1,5-naphthyridin-4-yl)-2,5-dimethylpiperazin-1-yl)-2-(4-fluorophenyl)-N-(isoxazol-3-yl)acetamide]",2.44,5.57,,3.75
"C[C@@H]1CN(c2cc(=O)n(C)c3ccc(C#N)nc23)[C@@H](C)CN1C(C(=O)Nc1ccon1)c1ccc(F)cc1 (stereo partly drawn) [Example 30, 2-((2R,5S)-4-(6-cyano-1-methyl-2-oxo-1,2-dihydro-1,5-naphthyridin-4-yl)-2,5-dimethylpiperazin-1-yl)-2-(4-fluorophenyl)-N-(isoxazol-3-yl)acetamide]",0.14,0.02,,
"CC(C)N(C)C(=O)CC(c1ccc(F)cc1)N1C[C@H](C)N(c2cc(=O)n(C)c3ccc(C#N)nc23)C[C@H]1C (stereo partly drawn) [Example 42, 3-[(2R,5S)-4-(6-cyano-1-methyl-2-oxo-1,2-dihydro-1,5-naphthyridin-4-yl)-2,5-dimethylpiperazin-1-yl]-3-(4-fluorophenyl)-N-methyl-N-(propan-2-yl)propanamide]",4.12,0.83,1.37,
"C#CCCC1(CCCOC(=O)C(c2ccc(F)cc2)N2C[C@H](C)N(c3cc(=O)n(C)c4ccc(C#N)nc34)C[C@H]2C)N=N1 (stereo partly drawn) [Example 57, 3-(3-(but-3-yn-1-yl)-3H-diazirin-3-yl)propyl 2-((2R,5S)-4-(6-cyano-1-methyl-2-oxo-1,2-dihydro-1,5-naphthyridin-4-yl)-2,5-dimethylpiperazin-1-yl)-2-(4-fluorophenyl)acetate]",0.19,0.07,,0.12
"C[C@@H]1CN(c2cc(=O)n(C)c3ccc(C#N)nc23)[C@@H](C)CN1C(C(=O)OCCC1(C)N=N1)c1ccc(F)cc1 (stereo partly drawn) [Example 62, 2-(3-methyl-3H-diazirin-3-yl)ethyl 2-((2R,5S)-4-(6-cyano-1-methyl-2-oxo-1,2-dihydro-1,5-naphthyridin-4-yl)-2,5-dimethylpiperazin-1-yl)-2-(4-fluorophenyl)acetate]",0.19,0.08,,0.57
"C[C@@H]1CN(c2cc(=O)n(C)c3ccc(C#N)nc23)[C@@H](C)CN1C(C(=O)NCCOCCOCCNC(=O)c1ccc2c(c1)C(=O)OC21c2ccc(O)cc2Oc2cc(O)ccc21)c1ccc(F)cc1 (stereo partly drawn) [Example 65, N-(2-(2-(2-(2-((2R,5S)-4-(6-cyano-1-methyl-2-oxo-1,2-dihydro-1,5-naphthyridin-4-yl)-2,5-dimethylpiperazin-1-yl)-2-(4-fluorophenyl)acetamido)ethoxy)ethoxy)ethyl)-3′,6′-dihydroxy-3-oxo-3H-spiro[isobenzofuran-1,9′-xanthene]-5-carboxamide]",56.6,96.5,,
"C[C@@H]1CN(c2cc(=O)n(C)c3ccc(C#N)nc23)[C@@H](C)CN1C(C(=O)OCCOCCOCCNC(=O)c1ccc2c(c1)C(=O)OC21c2ccc(O)cc2Oc2cc(O)ccc21)c1ccc(F)cc1 (stereo partly drawn) [Example 68, 2-(2-(2-(3′,6′-dihydroxy-3-oxo-3H-spiro[isobenzofuran-1,9′-xanthene]-5-carboxamido)ethoxy)ethoxy)ethyl 2-((2R,5S)-4-(6-cyano-1-methyl-2-oxo-1,2-dihydro-1,5-naphthyridin-4-yl)-2,5-dimethylpiperazin-1-yl)-2-(4-fluorophenyl)acetate]",0.41,0.16,,
